Laboratory results: patent US10588313B1, “Compounds of fatty acids and ammonium fatty acid salts” (Falcon Lab, LLC, priority 2019, dated 2020)

Key:
S. aureous = assay: AOAC International Use-Dilution Method, comparison test; details: 2.5% solution
Procedure: In this test, 60 sterilized steel penicylinders are inoculated by soaking in a test culture of the bacteria. The cylinders are then dried in an incubator. After drying, they are submerged in test tubes containing the test substance and allowed to incubate for ten minutes. They are then aseptically transferred to individual tubes containing neutralization/growth medium. The neutralization/growth medium tubes are shaken and incubated. After the incubation period, tubes are qualitatively assessed for growth of the test organism.
AOAC has defined the passing criteria for this test as a disinfectant to be less than or equal to 3 positive carriers out of 60 when testing against S. aureous.

Streptococcus Group A = details: even numbered fatty acids C8 to C18; cited from earlier work
Staphlycoccus aureous = details: even numbered fatty acids C8 to C18; cited from earlier work
Candida albicans = details: even numbered fatty acids C8 to C18; cited from earlier work
[1] = test system: Staphylococcus aureus ATCC 6538; assay: ASTM International Method E2315 assessment of antibacterial activity (time kill in suspension); format: cell-based; details: for percent reduction in bacteria: 1% dispersion in water; for percent reduction of the test bacteria: pH 6, 30 seconds contact time
Procedure: A 1:99 mixture of the solid compound described in Experiment 1 was made by adding 0.2 gm. to 19.8 ml. of sterile water. […]. One ml of the inoculated substance was harvested at each contact time and neutralized in 9 ml of D/E broth. Enumerations were performed for each time point using standard microbiologic plating methods. At time zero, the percent reduction in bacteria was already 99.9997%, the limit of detection. The percent reduction at 30 seconds, 2 minutes and 10 minutes were also 99.9997%. When 0.1 ml of the 1% dispersion was diluted with 9.9 ml of sterile water to prepare a 0.1% dispersion and the same tests run, the percent reduction in bacteria count was 99.9997% at the 30-second contact time.

Escherichia coli 8739 = assay: ASTM E2315 antibacterial activity; format: cell-based; details: 1% dispersion, 30 seconds contact time
Procedure: (§1) A 1:99 mixture of the solid compound described in Experiment 1 was made by adding 0.2 gm. to 19.8 ml. of sterile water. Following ASTM International Method E2315 for assessment of antibacterial activity, 10 ml of this uniform mixture was aliquoted into a sterile vessel to produce a 1% dispersion that was then inoculated with the Gram-positive bacterium Staphylococcus aureus ATCC 6538 at 25° C. for a target concentration of 1×10^6 CFU (cells)/ml. One ml of the inoculated substance was harvested at each contact time and neutralized in 9 ml of D/E broth. Enumerations were performed for each time point using standard microbiologic plating methods. At time zero, the percent reduction in bacteria was already 99.9997%, the limit of detection. The percent reduction at 30 seconds, 2 minutes and 10 minutes were also 99.9997%. When 0.1 ml of the 1% dispersion was diluted with 9.9 ml of sterile water to prepare a 0.1% dispersion and the same tests run, the percent reduction in bacteria count was 99.9997% at the 30-second contact time.
(§2) The 1% dispersion described in Example 3 was contacted with the Gram-negative bacteria Escherichia coli 8739 and Pseudomonas aeruginosa 15442 each in the manner described in Example 2. After 30 seconds of contact time, the reductions of the test bacteria were 99.9996% and 99.995% respectively.

[2] = test system: Pseudomonas aeruginosa 15442; assay: ASTM E2315 antibacterial activity; format: cell-based; details: 1% dispersion, 30 seconds contact time
Procedure: as §1, §2

[3] = test system: Enterococcus faecalis 29212; assay: ASTM E2315 antibacterial activity; format: cell-based; details: 1% dispersion, 30 second contact time
Procedure: as §1
The same dispersion used in Examples 4 and 5 was tested against Gram-positive Enterococcus faecalis 29212 in the manner described in Example 2. After 30 second contact time, the bacterial reduction was >99.9986%.

[4] = test system: Salmonella enterica ATCC 10708; assay: AOAC International Use-Dilution Method (hard surface disinfectant, steel penicylinders); format: cell-based; details: 2% dispersion, ten minutes exposure
pH of water dispersion = format: physicochemical
Procedure: (§3) A slurry of white solid formed immediately. About 200 ml of distilled water were added with stirring to obtain a clear solution with a pH of 8. […] It melted sharply at 62° C.
After standing for 4 hours, a white, opaque, uniform thin liquid was obtained. The pH of the liquid was 6. The bottle was then shaken vigorously for several minutes. The contents of the bottle changed to a foamy, motionless, thick gel that totally filled the bottle. After standing overnight, the gel remained the same, still filling the bottle. But after standing for 48 hours, the gel reverted to the original thin liquid. Upon shaking the bottle again, the thick gel reappeared.

[5] = Stability of solid and of water dispersion on storage; format: physicochemical; details: no emulsifier or surfactant
Text: The compounds are believed to form as the result of hydrogen bonding wherein a hydrogen atom covalently bonded to nitrogen becomes attracted to the oxygen of the carboxylic acid forming a hydrogen bond.
Since the compounds are stable at ambient temperatures and pressures and exist as non-hygroscopic crystalline solids, they may be transported as 100% active ingredients to their point of use. […] The compounds can be stored and shipped in any type of container, including plastic, paper or cloth bags, metal, glass or plastic. In an embodiment, the compounds can be transported in such containers to the point of use by mixing with water to produce disinfecting compositions.
When the solid compound is mixed with water, it completely distributes in the water to produce a uniform composition in the absence of any emulsifier, surfactant, soap, wetting agent, dispersing agent or suspending agent. The solid compound, while being water-insoluble, remains stable as a dispersion indefinitely.
as §3

In the case of `CCCCCCCCC(=O)O.N` [ammonium nonanoate], the “AOAC disinfectant test result” value (S. aureous) is reported as “no disinfectant properties” and the “number of confirmed positive test tubes out of 60 carriers” value (S. aureous; pass = less than or equal to 3 positive carriers out of 60) is reported as 60.

For `CCCCCCCCCC(=O)O` [capric acid], the “antimicrobial activity among fatty acids tested” value (Streptococcus Group A) is given as “highest activity”, the “antimicrobial activity among fatty acids tested” value (Staphlycoccus aureous) is given as “highest activity” and the “antimicrobial activity among fatty acids tested” value (Candida albicans) is given as “highest activity”.

With ammonium di-nonanoate [Example 1] the “percent reduction in bacteria count” value ([1]; 0.1% dispersion in water, 30-second contact time) was 99.9997%, the “percent reduction in bacteria” value ([1]; 30 seconds contact time) was 99.9997% and the “percent reduction in bacteria” value ([1]; 2 minutes contact time) was 99.9997%. The “percent reduction in bacteria” value ([1]; 10 minutes contact time) was 99.9997%, the “percent reduction in bacteria” value ([1]; time zero, 25° C., 1×10^6 CFU/ml, 99.9997% = limit of detection) was 99.9997% and the “percent reduction of the test bacteria” value ([1]; 1% dispersion of solid stored in a plastic container for over 5 years) was over 99.9997%. For the same compound, the “reduction of the test bacteria” value (Escherichia coli 8739) was 99.9996%, the “reduction of the test bacteria” value [2] was 99.995% and the bacterial reduction [3] was over 99.9986%. For the same compound, the “AOAC disinfectant test result” value [4] was “pass”, the “number of positive test tubes (growth) out of 60 carriers” value ([4]; pass = less than or equal to 1 positive carrier out of 60) was 0 and the “pH of water dispersion” value (pH of water dispersion; 1% dispersion in distilled water) was 6. The “pH of water dispersion” value (pH of water dispersion; 10% dispersion in distilled water) was 6, the “pH of water dispersion” value (pH of water dispersion; concentration not given) was 6 and the “stability of water dispersion on storage” value [5] was “remained unchanged in appearance after months of storage”.

With ammonium di-octanoate [Example 10] the “percent reduction of the test bacteria” value ([1]; 0.5% dispersion in water) was over 99.988% and the “pH of water dispersion” value (pH of water dispersion; 0.5% dispersion in distilled water) was 6.
